Earlier results as cited in patent publication US8529939B2, “Mucoadhesive drug delivery devices and methods of making and using thereof” (Gel-Del Technologies, Inc., priority 2003, dated 2013).

[1] = contact time 30 s, previous study

tensile stress [1]: 0.017 N/cm^2 | tensile work [1]: 0.015 mJ/cm^2 | bioadhesive properties (in words) (powders, control reference): no bioadhesive properties
SMILES: OC[C@@H](O)[C@@H](O)[C@H](O)[C@H](O)CO [Mannitol, mannitol]
